Reference: patent US8916557B2, “Substituted 4-Aryl-N-phenyl-1,3,5-triazin-2-amines” (Bayer Intellectual Property GmbH, priority 2011, dated 2014)

What was measured:
[1] = tested on: HeLa-MaTu-ADR, multidrug-resistant human cervical carcinoma cells; test: Proliferation assay (crystal violet), HeLa-MaTu-ADR; assay type: cell-based; settings: read-out: Inhibition of HeLa/MaTu/ADR cell proliferation
Method: (§1) Cultivated tumour cells (NCI-H460, human non-small cell lung carcinoma cells, ATCC HTB-177; DU 145, hormone-independent human prostate carcinoma cells, ATCC HTB-81; HeLa-MaTu, human cervical carcinoma cells, EPO-GmbH, Berlin; HeLa-MaTu-ADR, multidrug-resistant human cervical carcinoma cells, EPO-GmbH, Berlin; HeLa human cervical tumour cells, ATCC CCL-2; Caco-2 human colorectal carcinoma, ATCC HTB-37; B16F10 mouse melanoma cells, ATCC CRL-6475) were plated at a density of 5000 cells/well (DU145, HeLa-MaTu-ADR), 3000 cells/well (NCI-H460, HeLa-MaTu, HeLa), 1500 cells/well (Caco-2), or 1000 cells/well (B16F10) in a 96-well multititer plate in 200 μL of their respective growth medium supplemented 10% fetal calf serum. After 24 hours, the cells of one plate (zero-point plate) were stained with crystal violet (see below), while the medium of the other plates was replaced by fresh culture medium (200 μl), to which the test substances were added in various concentrations (0 μM, as well as in the range of 0.001-10 μM; the final concentration of the solvent dimethyl sulfoxide was 0.5%). The cells were incubated for 4 days in the presence of test substances. Cell proliferation was determined by staining the cells with crystal violet: the cells were fixed by adding 20 μl/measuring point of an 11% glutaric aldehyde solution for 15 minutes at room temperature. After three washing cycles of the fixed cells with water, the plates were dried at room temperature. The cells were stained by adding 100 μl/measuring point of a 0.1% crystal violet solution (pH 3.0). After three washing cycles of the stained cells with water, the plates were dried at room temperature. The dye was dissolved by adding 100 μl/measuring point of a 10% acetic acid solution. The extinction was determined by photometry at a wavelength of 595 nm. The change of cell number, in percent, was calculated by normalization of the measured values to the extinction values of the zero-point plate (=0%) and the extinction of the untreated (0 μm) cells (=100%). The IC50 values were determined by means of a 4 parameter fit.

CDK9/CycT1 = molecular target: T1, CDK9/CycT1 (Homo sapiens, UniProt P50750); test: CDK9/CycT1 kinase assay (TR-FRET); assay type: biochemical; settings: Method 1, 10 μM ATP
T1 construct: Recombinant full-length His-tagged human CDK9 and CycT1; His; purchased Invitrogen PV4131; host or cells: insect cells
Outline: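 Full-length His-tagged human CDK9/CycT1 (insect-cell expressed), 15 min compound pre-incubation, then 25 min at 22 °C with 10 µM ATP (final) and 1 µM biotinylated peptide (final) in Tris pH 8.0/MgCl2 buffer. Phospho-substrate detected by TR-FRET (anti-RB pSer807/pSer811, Eu anti-mouse IgG, streptavidin-XL665); 665/622 nm emission ratio as read-out.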

[2] = tested on: NCI-H460, human non-small cell lung carcinoma cells; test: Proliferation assay (crystal violet), NCI-H460; assay type: cell-based; settings: read-out: Inhibition of H460 cell proliferation (activity range)
Method: as §1

[3] = tested on: HeLa human cervical tumour cells; test: Proliferation assay (crystal violet), HeLa; assay type: cell-based; settings: read-out: Inhibition of HeLa cell proliferation
[4] = tested on: B16F10 mouse melanoma cells; test: Proliferation assay (crystal violet), B16F10; assay type: cell-based; settings: B16-F10, read-out: Inhibition of B16F10 cell proliferation
Method: as §1

[5] = tested on: DU 145, hormone-independent human prostate carcinoma cells; test: Proliferation assay (crystal violet), DU 145; assay type: cell-based; settings: DU145 cells, read-out: Inhibition of DU145 cell proliferation

T1 sequence (P50750 whole entry): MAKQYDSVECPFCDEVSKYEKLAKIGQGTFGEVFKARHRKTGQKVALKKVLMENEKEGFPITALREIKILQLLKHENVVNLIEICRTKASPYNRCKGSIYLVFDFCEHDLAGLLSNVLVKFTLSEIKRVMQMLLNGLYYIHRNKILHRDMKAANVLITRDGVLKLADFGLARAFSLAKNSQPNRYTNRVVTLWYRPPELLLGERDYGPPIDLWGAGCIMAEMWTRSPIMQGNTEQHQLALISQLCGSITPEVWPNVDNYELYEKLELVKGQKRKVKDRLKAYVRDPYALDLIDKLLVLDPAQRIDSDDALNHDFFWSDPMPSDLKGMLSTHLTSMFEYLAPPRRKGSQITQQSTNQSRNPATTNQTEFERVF
T1 sequence (O60563 whole entry partner): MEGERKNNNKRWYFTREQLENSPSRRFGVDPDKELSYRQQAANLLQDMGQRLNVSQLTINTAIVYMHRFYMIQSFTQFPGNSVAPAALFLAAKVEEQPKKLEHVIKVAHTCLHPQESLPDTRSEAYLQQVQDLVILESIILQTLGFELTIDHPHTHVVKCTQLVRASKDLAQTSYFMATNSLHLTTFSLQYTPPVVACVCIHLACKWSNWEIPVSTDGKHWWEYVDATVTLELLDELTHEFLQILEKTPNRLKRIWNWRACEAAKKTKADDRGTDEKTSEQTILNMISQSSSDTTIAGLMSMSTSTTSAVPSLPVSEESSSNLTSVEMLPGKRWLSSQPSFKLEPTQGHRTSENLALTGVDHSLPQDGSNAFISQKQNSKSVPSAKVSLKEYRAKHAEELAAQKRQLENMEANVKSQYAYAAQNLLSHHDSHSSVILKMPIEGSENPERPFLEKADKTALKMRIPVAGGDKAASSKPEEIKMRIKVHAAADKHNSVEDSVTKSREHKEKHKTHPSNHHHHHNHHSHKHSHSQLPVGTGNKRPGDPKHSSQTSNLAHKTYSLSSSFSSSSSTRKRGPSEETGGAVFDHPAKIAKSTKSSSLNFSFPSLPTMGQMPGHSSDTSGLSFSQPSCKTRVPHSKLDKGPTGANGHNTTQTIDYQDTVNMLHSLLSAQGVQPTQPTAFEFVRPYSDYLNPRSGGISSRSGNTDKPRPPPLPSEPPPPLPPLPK

IC50 [1]	IC50 (CDK9/CycT1)	IC50 [2]	IC50 [3]	IC50 [4]	IC50 [5]	Compound
340 nM	5 nM	170 nM	110 nM	250 nM	180 nM	CS(=O)(=O)Cc1cccc(Nc2ncnc(-c3ccc(F)cc3OCc3ccncc3)n2)c1 [Example 89, 4-[4-Fluoro-2-(pyridin-4-ylmethoxy)phenyl]-N-{3-[(methylsulfonyl)methyl]phenyl}-1,3,5-triazin-2-amine]
380 nM	8 nM	610 nM	590 nM	740 nM	480 nM	CS(=O)(=O)Cc1cccc(Nc2ncnc(-c3ccc(F)cc3OCCF)n2)c1 [Example 61, 4-[4-Fluoro-2-(2-fluoroethoxy)phenyl]-N-{3-[(methylsulfonyl)methyl]phenyl}-1,3,5-triazin-2-amine]
330 nM	3 nM	60 nM	110 nM	320 nM	280 nM	CS(=O)(=O)Cc1cccc(Nc2ncnc(-c3ccc(F)cc3OCc3ccc(C#N)cc3)n2)c1 [Example 90, 4-({5-Fluoro-2-[4-({3-[(methylsulfonyl)methyl]phenyl}amino)-1,3,5-triazin-2-yl]phenoxy}methyl)-benzonitrile]
400 nM	8 nM	730 nM	530 nM	640 nM	530 nM	CS(=O)(=O)Cc1cccc(Nc2ncnc(-c3cccc4c3OCCO4)n2)c1 [Example 18, 4-(2,3-Dihydro-1,4-benzodioxin-5-yl)-N-{3-[(methylsulfonyl)methyl]phenyl}-1,3,5-triazin-2-amine]
160 nM	4 nM	200 nM	290 nM	280 nM	280 nM	CS(=O)(=O)Cc1cccc(Nc2ncnc(-c3cc(F)ccc3OCc3cccc(F)c3)n2)c1 [Example 31, 4-{5-Fluoro-2-[(3-fluorobenzyl)oxy]phenyl}-N-{3-[(methylsulfonyl)methyl]phenyl}-1,3,5-triazin-2-amine]
100 nM	3 nM	150 nM	100 nM	130 nM	–	CS(=O)(=O)Cc1cccc(Nc2ncnc(-c3ccc(F)cc3OCc3ccccc3)n2)c1 [Example 4, 4-[2-(Benzyloxy)-4-fluorophenyl]-N-{3-[(methylsulfonyl)methyl]phenyl}-1,3,5-triazin-2-amine]
510 nM	14 nM	600 nM	640 nM	820 nM	600 nM	COc1cc(F)ccc1-c1ncnc(Nc2cccc(CS(=O)(=O)C3CC3)c2)n1 [Example 40, N-{3-[(Cyclopropylsulfonyl)methyl]phenyl}-4-(4-fluoro-2-methoxyphenyl)-1,3,5-triazin-2-amine]
400 nM	610 nM	730 nM	530 nM	640 nM	530 nM	CS(=O)(=O)Cc1cccc(Nc2ncnc(-c3ccc(Cl)cc3OC3CCCC3)n2)c1 [Example 29, 4-[4-Chloro-2-(cyclopentyloxy)phenyl]-N-{3-[(methylsulfonyl)methyl]phenyl}-1,3,5-triazin-2-amine]
400 nM	14 nM	910 nM	680 nM	1000 nM	830 nM	COc1cc(F)c(F)cc1-c1ncnc(Nc2cccc(CS(C)(=O)=O)c2)n1 [Example 1, 4-(4,5-Difluoro-2-methoxyphenyl)-N-{3-[(methylsulfonyl)methyl]phenyl}-1,3,5-triazin-2-amine]
80 nM	6 nM	220 nM	110 nM	270 nM	220 nM	COc1cc(F)ccc1-c1ncnc(Nc2cc(F)cc(CS(C)(=O)=O)c2)n1 [Example 10, 4-(4-Fluoro-2-methoxyphenyl)-N-{3-fluoro-5-[(methylsulfonyl)methyl]phenyl}-1,3,5-triazin-2-amine]
270 nM	4 nM	210 nM	190 nM	230 nM	170 nM	CS(=O)(=O)Cc1cccc(Nc2ncnc(-c3ccc(F)cc3OCc3ccnc(Cl)c3)n2)c1 [Example 88, 4-{2-[(2-Chloropyridin-4-yl)methoxy]-4-fluorophenyl}-N-{3-[(methylsulfonyl)-methyl]phenyl}-1,3,5-triazin-2-amine]
350 nM	5 nM	380 nM	510 nM	440 nM	380 nM	Cc1cccc(COc2cc(F)ccc2-c2ncnc(Nc3cccc(CS(C)(=O)=O)c3)n2)c1 [Example 83, 4-{4-Fluoro-2-[(3-methylbenzyl)oxy]phenyl}-N-{3-[(methylsulfonyl)-methyl]phenyl}-1,3,5-triazin-2-amine]
350 nM	7 nM	360 nM	320 nM	450 nM	410 nM	CS(=O)(=O)Cc1cccc(Nc2ncnc(-c3ccc(F)cc3OCc3cccc(Cl)c3)n2)c1 [Example 85, 4-{2-[(3-Chlorobenzyl)oxy]-4-fluorophenyl}-N-{3-[(methylsulfonyl)methyl]phenyl}-1,3,5-triazin-2-amine]
220 nM	5 nM	290 nM	330 nM	370 nM	260 nM	CCOc1cc(F)ccc1-c1ncnc(Nc2cccc(CS(C)(=O)=O)c2)n1 [Example 42, 4-(2-Ethoxy-4-fluorophenyl)-N-{3-[(methylsulfonyl)-methyl]phenyl}-1,3,5-triazin-2-amine]
230 nM	7 nM	410 nM	340 nM	510 nM	320 nM	CS(=O)(=O)Cc1cccc(Nc2ncnc(-c3cccc4c3OCCC4)n2)c1 [Example 12, 4-(3,4-Dihydro-2H-chromen-8-yl)-N-{3-[(methylsulfonyl)methyl]phenyl}-1,3,5-triazin-2-amine]
740 nM	6 nM	340 nM	320 nM	370 nM	300 nM	Cc1cc(COc2cc(F)ccc2-c2ncnc(Nc3cccc(CS(C)(=O)=O)c3)n2)ccn1 [Example 87, 4-{4-Fluoro-2-[(2-methylpyridin-4-yl)methoxy]-phenyl}-N-{3-[(methylsulfonyl)methyl]phenyl}-1,3,5-triazin-2-amine]
420 nM	10 nM	690 nM	1000 nM	1300 nM	840 nM	COc1cc(F)ccc1-c1ncnc(Nc2cccc(CS(=O)(=O)C3CCCCC3)c2)n1 [Example 9, N-{3-[(Cyclohexylsulfonyl)methyl]phenyl}-4-(4-fluoro-2-methoxyphenyl)-1,3,5-triazin-2-amine]
180 nM	3 nM	160 nM	110 nM	240 nM	170 nM	CC#CCOc1cc(F)ccc1-c1ncnc(Nc2cccc(CS(C)(=O)=O)c2)n1 [Example 62, 4-[2-(But-2-yn-1-yloxy)-4-fluorophenyl]-N-{3-[(methylsulfonyl)methyl]phenyl}-1,3,5-triazin-2-amine]
920 nM	24 nM	1200 nM	–	1700 nM	1200 nM	COc1cc(F)ccc1-c1ncnc(Nc2cccc(CS(C)(=O)=O)c2)n1 [Example 3, 4-(4-Fluoro-2-methoxyphenyl)-N-{3-[(methylsulfonyl)methyl]phenyl}-1,3,5-triazin-2-amine]

Compound	IC50 [1]	IC50 (CDK9/CycT1)	IC50 [2]	IC50 [3]	IC50 [4]	IC50 [5]
CS(=O)(=O)Cc1cccc(Nc2ncnc(-c3ccc(F)cc3OCCCC(F)(F)F)n2)c1 [Example 59, 4-[4-Fluoro-2-(4,4,4-trifluorobutoxy)phenyl]-N-{3-[(methylsulfonyl)methyl]phenyl}-1,3,5-triazin-2-amine]	220 nM	5 nM	350 nM	470 nM	330 nM	220 nM
